Consider three compounds from patent publication US20230330254A1 (Regeneron Pharmaceuticals, Inc., priority 2022, published 2023).

What is called IC50 is the concentration that inhibits the measured activity by half. A higher IC50 goes with weaker potency in that assay.

Where two headings read alike, the source gives them in different places. Where a SMILES comes first, the peptide text is derived from it. [ ]: non-standard residue; d: D form. The star is where a group is joined. Bip(2'-Et,4'-O(CH2)4NH2) = CCc1cc(OCCCCN)ccc1-c1ccc(C[C@H](N)C(=O)O)cc1; Malonyl(2,2-Me2,histaminyl) = CC(C)(C(=O)NCCc1cnc[nH]1)C(=O)*; Nva(5-(3,5-Me2Ph)) = Cc1cc(C)cc(CCC[C@H](N)C(=O)O)c1; Ala(1H-tetrazol-5-yl) = N[C@@H](Cc1nnn[nH]1)C(=O)O; αMePhe(2-F) = C[C@](N)(Cc1ccccc1F)C(=O)O A value given as a limit tells only on which side of the number the result lay.

One assay addresses hERG potassium channels (Homo sapiens, UniProt Q12809). The experiment in a line: cell-based. As for the experimental part: For the assay, CHO cells stably expressing hERG potassium channels were plated and cultured for at least 2 days in a humidified and air-controlled (5% CO2) incubator at 37° C. prior to use in electrophysiological experiments. Cells were then harvested using TrypLE and resuspended in physiological solution (10 mM HEPES, 80 mM NaCl, 4 mM KCl, 2 mM CaCl2, 1 mM MgCl2, 5 mM Glucose, 60 mM NM DG, pH 7.4). Test compounds were dissolved in water to obtain stock solutions for different test concentrations. […] One 40 μL addition of the vehicle was applied, followed by a 300s baseline recording period. […] Recordings were required to pass quality control over the duration of the recording or the well was abandoned, and the compound was retested, all automatically set by PatchControl. […] A minimum of 2 replicates per concentration were obtained. […] Curve-fitting and IC50 value calculations were performed by GraphPad Prism 5.0.

Assay [1] concerns the target T1, human GLP1R (Homo sapiens, UniProt P43220). The experiment in a line: Human GLP1R cAMP accumulation assay. Type of assay: cell-based. Set-up: HEK293 cells over-expressing full length human GLP-1R were utilized; expressed in transfected cells; host or cells: HEK293 (HEK293/hGLP1R). The gist of the method: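 cAMP accumulation measured after 30 min at 23° C, with 500 μM IBMX in HEPES-buffered HBSS plus 0.1% BSA, in HEK293 cells expressing full-length hGLP-1R. Levels read by D2-cAMP/antibody immunoassay via standard curve, scaled between low and high controls. EC50 fitted four-parameter over a 10-point curve.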
On the technique in general: Cyclic AMP is a second messenger, typically raised through Gs and lowered through Gi signalling.

The next assay relates to HEK293/CRE-Luc cells. Description: Luciferase reporter assay, HEK293/CRE-Luc cells without GLP1R (Example 17). It counts as cell-based, human. The gist of the method: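 HEK293 cells carrying a CRE-driven firefly luciferase reporter were exposed to 3-fold serial dilutions of payloads or linker-payloads (12 points, 0.2% DMSO final) for 4–6 h, then luminescence was read. EC50 came from a four-parameter logistic fit; S/N is top RLU over untreated wells, and relative potency and S/N are referenced to M2361.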
(Reporter assays use an easily measured gene product as a stand-in for the process of interest.)

For assay [2], the target named is T1, human GLP1R. Description: b-arrestin 2 recruitment assay, PathHunter CHO/b-arrestin 2/hGLP1R cells. Conditions: read-out: CHO/b-arrestin 2/hGLP1R Emax (% GLP-1). Type of assay: cell-based. On the procedure: The b-arrestin 2 recruitment assay was performed following manufacter's instructions (Eurofins DiscoverX, #93-0300E2CP0M), with minor modifications. […] Serial dilutions of free payload and LP were performed in 100% DMSO, followed by 1:100 dilution in assay media. Test articles were added to cells (1:5 dilution) with the last well in each serial dilution series serving as a blank control containing only assay media for antibodies and ATLs or assay media with 0.2% DMSO for payload and LP. After a 90-minute incubation at 37° C., PathHunter Detection Reagent (Eurofins DiscoverX, #93-0300E2CP0M) was added to the wells followed by a 1-hour incubation at room temperature. RLUs were measured on EnVision Plate Reader (Perkin Elmer).
EC50 values for luminescence assays were determined using a four-parameter logistic equation over a 12-point dose response curve (GraphPad Prism).
Background: Arrestin recruitment assays detect the binding of arrestin to an activated receptor.

The target of assay [3] is T2, human gastric inhibitory polypeptide receptor (GIPR) (Homo sapiens, UniProt P48546).
T2 sequence (P48546 22-466): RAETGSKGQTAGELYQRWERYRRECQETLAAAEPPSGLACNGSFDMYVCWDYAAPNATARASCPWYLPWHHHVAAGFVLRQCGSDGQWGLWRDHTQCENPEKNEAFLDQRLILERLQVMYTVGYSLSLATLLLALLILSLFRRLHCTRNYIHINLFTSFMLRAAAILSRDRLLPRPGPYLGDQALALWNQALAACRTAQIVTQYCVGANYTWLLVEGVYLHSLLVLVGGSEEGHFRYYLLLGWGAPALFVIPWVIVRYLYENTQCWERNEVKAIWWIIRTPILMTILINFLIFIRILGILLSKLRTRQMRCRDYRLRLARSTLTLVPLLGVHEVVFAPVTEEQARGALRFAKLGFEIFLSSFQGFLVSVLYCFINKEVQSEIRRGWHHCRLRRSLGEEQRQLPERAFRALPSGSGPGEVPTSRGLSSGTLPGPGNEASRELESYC
The experiment in a line: Luciferase reporter assay, HEK293/CRE-Luc/hGIPR (Example 17). Set-up: expressed in transfected cells; host or cells: HEK293/CRE-Luc. It counts as cell-based. The following applies: Table 28; CRE-dependent luciferase reporter activity; read-out: HEK293/CRE-Luc/hGlPR EC50. The text has this: To test the activity of GLP1R agonist payloads, GLP1R agonist linker-payloads (LPs), and anti-GLP1R antibody tethered drug conjugates (ATDCs) of the invention, a cell-based cAMP responsive luciferase reporter assay was developed. To generate the assay cell line, the firefly luciferase gene was placed under the control of a cAMP response element (CRE) located upstream of a minimal promoter and transfected into HEK293 cells and referred to herein as HEK293/CRE-Luc cells.
Three-fold serial dilutions of free payloads or LPs were prepared in 100% DMSO, transferred to fresh assay media, and added to the cells at a final constant DMSO concentration of 0.2%. The last well in the plate served as a blank control containing only the assay media and 0.2% DMSO (untreated well) and was plotted as a continuation of the 3-fold serial dilution. Four to six hours later, luciferase activity was determined after the addition of One-Glo™ reagent (Promega, Cat #E6130) to each well. Relative light units (RLUs) were measured on an Envision luminometer (PerkinElmer) and EC50 values were determined using a four-parameter logistic equation over a 12-point dose response curve (GraphPad Prism). The signal to noise (S/N) was determined by taking the ratio of the highest RLU on the dose response curve to the RLU in the untreated wells. […]

The mark [4] stands for this setting: HEK293/hGLP1R cells, Table 4, read-out: cAMP EC50.
[5] abbreviates: HEK293/CRE-Luc cells without hGLP1R, payloads and linker-payloads.
The mark [6] stands for this setting: HEK293/CRE-Luc cells without hGLP1R, payloads and linker-payloads, read-out: EC50.

T1 sequence (P43220 24-463): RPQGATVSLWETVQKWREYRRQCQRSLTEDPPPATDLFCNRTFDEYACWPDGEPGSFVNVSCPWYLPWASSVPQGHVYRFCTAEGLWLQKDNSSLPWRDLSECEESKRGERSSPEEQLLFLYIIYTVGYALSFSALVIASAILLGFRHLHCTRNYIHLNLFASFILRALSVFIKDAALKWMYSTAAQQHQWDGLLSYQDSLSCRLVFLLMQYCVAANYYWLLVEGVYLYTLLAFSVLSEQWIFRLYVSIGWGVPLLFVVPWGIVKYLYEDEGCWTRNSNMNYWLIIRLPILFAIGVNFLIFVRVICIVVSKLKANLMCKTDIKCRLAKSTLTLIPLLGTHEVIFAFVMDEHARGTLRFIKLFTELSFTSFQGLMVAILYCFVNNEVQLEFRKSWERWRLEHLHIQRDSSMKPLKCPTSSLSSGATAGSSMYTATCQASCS
Chain of hERG potassium channels (Q12809 whole entry): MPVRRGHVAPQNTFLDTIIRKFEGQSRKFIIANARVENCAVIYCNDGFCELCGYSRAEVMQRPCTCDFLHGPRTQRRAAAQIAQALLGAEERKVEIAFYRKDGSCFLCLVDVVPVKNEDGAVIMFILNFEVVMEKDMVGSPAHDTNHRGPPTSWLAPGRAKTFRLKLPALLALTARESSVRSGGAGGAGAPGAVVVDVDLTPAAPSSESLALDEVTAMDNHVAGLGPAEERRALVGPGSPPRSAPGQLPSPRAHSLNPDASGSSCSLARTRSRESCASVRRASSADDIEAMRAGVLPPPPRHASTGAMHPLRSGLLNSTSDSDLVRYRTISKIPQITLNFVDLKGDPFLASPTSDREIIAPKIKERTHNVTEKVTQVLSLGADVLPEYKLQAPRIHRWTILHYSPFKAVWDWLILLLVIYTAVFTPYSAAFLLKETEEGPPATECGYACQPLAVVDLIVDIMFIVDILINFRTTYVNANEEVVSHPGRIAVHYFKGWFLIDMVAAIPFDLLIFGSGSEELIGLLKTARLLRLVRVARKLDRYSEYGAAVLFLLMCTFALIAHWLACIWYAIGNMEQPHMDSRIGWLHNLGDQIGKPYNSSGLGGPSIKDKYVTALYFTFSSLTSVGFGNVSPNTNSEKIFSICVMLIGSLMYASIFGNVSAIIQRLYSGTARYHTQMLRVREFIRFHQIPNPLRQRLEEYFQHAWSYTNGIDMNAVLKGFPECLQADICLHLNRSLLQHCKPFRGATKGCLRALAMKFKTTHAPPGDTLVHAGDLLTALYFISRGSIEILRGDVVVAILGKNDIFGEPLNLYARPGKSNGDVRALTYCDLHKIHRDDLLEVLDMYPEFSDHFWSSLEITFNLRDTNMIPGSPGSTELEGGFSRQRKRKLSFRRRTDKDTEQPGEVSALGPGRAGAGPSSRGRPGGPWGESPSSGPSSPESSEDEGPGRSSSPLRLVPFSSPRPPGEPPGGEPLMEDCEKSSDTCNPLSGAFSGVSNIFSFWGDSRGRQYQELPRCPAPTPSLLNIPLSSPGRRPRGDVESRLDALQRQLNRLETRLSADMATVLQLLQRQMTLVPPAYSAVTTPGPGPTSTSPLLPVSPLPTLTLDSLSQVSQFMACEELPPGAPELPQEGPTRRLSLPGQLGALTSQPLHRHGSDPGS

Turning to `CCc1cc(OCCCCn2cc(COCCOCCOCCOCCOCCOCCOCCOCCN)nn2)ccc1-c1ccc(C[C@H](NC(=O)[C@H](CC(=O)O)NC(=O)[C@H](CO)NC(=O)[C@@H](NC(=O)C(C)(Cc2ccccc2F)NC(=O)[C@@H](NC(=O)CNC(=O)[C@H](Cc2nn[nH]n2)NC(=O)C(C)(C)C(=O)NCCc2cnc[nH]2)[C@@H](C)O)[C@@H](C)O)C(=O)N[C@@H](CCCc2cc(C)cc(C)c2)C(N)=O)cc1` (stereo partly drawn) [LP11, NH2-PEG8-triazole-P8], the half-maximal inhibitory concentration (IC50) on hERG potassium channels is above 100000 nM; at hERG potassium channels (human, pH 7.4), above 100000 nM. Besides, the EC50 amounted to 0.318 nM on human GLP1R [1] (setting [4]) and 0.318 nM on human GLP1R [1] (Table 5C, read-out: c-AMP EC50).

Consider `CCc1cc(OCCCCn2cc(COCCOCCOCCOCCOCCOCCOCCOCCN)nn2)ccc1-c1ccc(C[C@H](NC(=O)[C@H](CC(=O)O)NC(=O)[C@H](CO)NC(=O)[C@@H](NC(=O)[C@](C)(Cc2ccccc2F)NC(=O)[C@@H](NC(=O)CNC(=O)[C@H](Cc2nn[nH]n2)NC(=O)C(C)(C)C(=O)NCCc2cnc[nH]2)[C@@H](C)O)[C@@H](C)O)C(=O)N[C@@H](CCCc2cc(C)cc(C)c2)C(N)=O)cc1` [M3190], for which the S/N with HEK293/CRE-Luc cells (HEK293/CRE-Luc cells without hGLP1R, ATDCs and references (Table 27)) was determined as 1.3; with HEK293/CRE-Luc cells (setting [5]), 1.3. Further, the EC50 in the assay with HEK293/CRE-Luc cells (HEK293/CRE-Luc cells without hGLP1R, ATDCs and references (Table 27), read-out: EC50) was above 20 nM; in the assay on HEK293/CRE-Luc cells (setting [6]), above 200 nM; in the assay on HEK293/CRE-Luc cells (Table 28, reporter cells without GLP1R, read-out: HEK293/CRE-Luc EC50) it was above 200 nM; with HEK293/CRE-Luc cells (Table 29, reporter cells without GLP1R, read-out: HEK293/CRE-Luc EC50), above 30 nM; in assay [3], above 200 nM. In addition, at human GLP1R [2], the Emax worked out at 108%.

In the case of `CCc1cc(OCCCCN)ccc1-c1ccc(C[C@H](NC(=O)[C@H](CC(=O)O)NC(=O)[C@H](CO)NC(=O)[C@@H](NC(=O)[C@](C)(Cc2ccccc2F)NC(=O)[C@@H](NC(=O)CNC(=O)[C@H](Cc2nn[nH]n2)NC(=O)C(C)(C)C(=O)NCCc2cnc[nH]2)[C@@H](C)O)[C@@H](C)O)C(=O)N[C@@H](CCCc2cc(C)cc(C)c2)C(N)=O)cc1` [P9, (8S,14S,17S,20S,23S,26S)-8-((2H-tetrazol-5-yl)methyl)-26-(((S)-1-(((S)-1-amino-5-(3,5-dimethylphenyl)-1-oxopentan-2-yl)amino)-3-(4′-(4-aminobutoxy)-2′-ethyl-[1,1′-biphenyl]-4-yl)-1-oxopropan-2-yl)carbamoyl)-17-(2-fluorobenzyl)-14,20-bis((R)-1-hydroxyethyl)-23-(hydroxymethyl)-1-(1H-imidazol-5-yl)-5,5,17-trimethyl-4,6,9,12,15,18,21,24-octaoxo-3,7,10,13,16,19,22,25-octaazaoctacosan-28-oic acid] ({Malonyl(2,2-Me2,histaminyl)}-[Ala(1H-tetrazol-5-yl)]GT[αMePhe(2-F)]TSD[Bip(2'-Et,4'-O(CH2)4NH2)][Nva(5-(3,5-Me2Ph))]-NH2), the S/N in the assay on HEK293/CRE-Luc cells (setting [5]) was found to be 1.3. Besides, the EC50 with HEK293/CRE-Luc cells (setting [6]) is above 200 nM; on human GLP1R [1] (setting [4]) it was 0.05 nM.
